Laboratory results from ChEMBL document CHEMBL1201862, “PubChem BioAssay data set” (2004).
Calls of active or inactive are those of the source.

Tests used:
Escherichia coli = experiment: microbe, parasite or virus in culture
[1] = target: 5-hydroxytryptamine receptor 5A (Homo sapiens, UniProt P47898); experiment: Counterscreen for agonists of OPRM1-OPRD1 heterodimerization: luminescence-based cell-based high throughput dose response assay to identify agonists of 5-hydroxytryptamine (serotonin) 5A receptor (HTR5A). [Related pubchem assays (depositor defined):AID504326, AID504355, AID504692, AID504904, AID504905]; type: functional
H4 [2] = experiment: Inhibitors of Prion Protein 5' UTR mRNA Measured in Cell-Based System Using Plate Reader - 2078-01_Inhibitor_Dose_DryPowder_Activity. [Related pubchem assays (depositor defined):AID488894]; type: functional; details: Homo sapiens
H4 [3] = experiment: inhibitors of control reporter signal in H4 cells – cell-based, plate reader, dry powder samples, counter-screen for prion reporter project, dose response (AID 540255); type: functional; details: Homo sapiens
[4] = target: Induced myeloid leukemia cell differentiation protein Mcl-1 (Homo sapiens, UniProt Q07820); type: functional
[5] = target: Dual specificity tyrosine-phosphorylation-regulated kinase 1A (Rattus norvegicus, UniProt Q63470); type: biochemical, Homo sapiens
SUMO-activating enzyme [6] = target: T1, SUMO-activating enzyme (Homo sapiens, UniProt Q9UBT2); experiment: blockers of SAE1/SAE2–UBC9 SUMO transfer – biochemical, HTRF, uHTS, primary screen (AID 2006); type: protein-complex assay
[7] = target: Ras and Rab interactor 1/Tyrosine-protein kinase ABL1 (Homo sapiens, UniProt P00519+Q13671); type: functional;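 further: biochemical TR-FRET dose-response test measuring inhibition of binding between Rin1 and Abl proteins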
[8] = target: Cyclin-dependent kinase 5/CDK5 activator 1 (Homo sapiens, UniProt Q00535); experiment: blockade of human CDK5 activity – biochemical, cherry-picked samples, set 2, dose response (AID 504545)
SUMO-activating enzyme [9] = target: T1, SUMO-activating enzyme; experiment: blockers of UBC9-mediated SUMO conjugation – biochemical, AlphaScreen, SUMOylation inhibitor project, confirmation (AID 2018); type: functional
Large T antigen = Large T antigen (Simian virus 40, UniProt P03070); type: functional, Betapolyomavirus macacae;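 further: Confirmatory-stage PubChem screen for compounds that inhibit SV40 T antigen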
[10] = target: Voltage-gated inwardly rectifying potassium channel KCNH2 (Homo sapiens, UniProt Q12809); details: Potency;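 further: confirmatory quantitative high-throughput screen measuring inhibition of hERG channel activity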
[11] = Luminescence Cell-Based Dose Retest to Confirm Inhibitors of Cancer Stem Cells. [Related pubchem assays (depositor defined):AID2717, AID2721]; type: functional; details: Homo sapiens
INS1 = experiment: INS-1E survival protection against cytokine death – cell-based, luminescence, retest, dose response (AID 449756); type: functional; details: Rattus norvegicus;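 further: cell death triggered by IL-1 beta plus TNF-alpha plus IFN-gamma mixture; protective hits raise ATP signal compared with cytokine alone wells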
[12] = target: T2, Heat shock factor protein 1 (Mus musculus, UniProt P38532); experiment: decrease of HSF1-responsive luciferase luminescence – cell-based, NIH3T3, dose retest, confirmation (AID 2382); type: functional;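 further: NIH3T3 fibroblasts with HSF1-driven luciferase reporter stressed by proteasome inhibitor MG132; luminescence from HSF1-driven luciferase expression after 8 hours of MG132 stress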
T2 sequence (P38532 whole entry): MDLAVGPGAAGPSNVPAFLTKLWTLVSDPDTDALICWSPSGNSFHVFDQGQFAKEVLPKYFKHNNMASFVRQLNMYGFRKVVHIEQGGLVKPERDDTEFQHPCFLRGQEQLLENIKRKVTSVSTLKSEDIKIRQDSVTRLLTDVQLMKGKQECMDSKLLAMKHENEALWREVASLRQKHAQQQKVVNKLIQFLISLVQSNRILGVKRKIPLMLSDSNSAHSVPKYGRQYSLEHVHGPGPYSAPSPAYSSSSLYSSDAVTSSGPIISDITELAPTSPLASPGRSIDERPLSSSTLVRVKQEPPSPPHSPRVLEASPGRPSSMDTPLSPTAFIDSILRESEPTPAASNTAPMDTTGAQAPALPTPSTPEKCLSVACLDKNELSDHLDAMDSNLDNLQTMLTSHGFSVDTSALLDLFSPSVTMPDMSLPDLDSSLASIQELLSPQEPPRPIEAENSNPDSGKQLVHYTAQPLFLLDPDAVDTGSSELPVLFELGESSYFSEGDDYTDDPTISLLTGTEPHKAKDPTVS

[13] = viability loss of HMLE_sh_eGFP cells – cell-based, luminescence, counter-screen for HMLE_sh_ECad selective toxicity project, dose response (AID 463074); type: functional, Homo sapiens;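 further: HMLE human mammary epithelial cells expressing control shRNA against eGFP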

T1 sequence (Q9UBE0 whole entry): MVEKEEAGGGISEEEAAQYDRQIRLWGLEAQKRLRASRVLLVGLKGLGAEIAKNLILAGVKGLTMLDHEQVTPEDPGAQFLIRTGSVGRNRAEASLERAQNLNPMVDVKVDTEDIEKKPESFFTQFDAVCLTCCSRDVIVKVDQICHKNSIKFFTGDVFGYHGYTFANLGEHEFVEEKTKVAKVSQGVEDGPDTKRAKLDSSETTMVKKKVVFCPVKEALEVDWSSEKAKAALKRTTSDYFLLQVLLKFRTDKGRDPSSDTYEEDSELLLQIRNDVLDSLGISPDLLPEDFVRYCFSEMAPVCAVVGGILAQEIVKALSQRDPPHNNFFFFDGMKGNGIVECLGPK
T1 sequence (Q9UBT2 whole entry): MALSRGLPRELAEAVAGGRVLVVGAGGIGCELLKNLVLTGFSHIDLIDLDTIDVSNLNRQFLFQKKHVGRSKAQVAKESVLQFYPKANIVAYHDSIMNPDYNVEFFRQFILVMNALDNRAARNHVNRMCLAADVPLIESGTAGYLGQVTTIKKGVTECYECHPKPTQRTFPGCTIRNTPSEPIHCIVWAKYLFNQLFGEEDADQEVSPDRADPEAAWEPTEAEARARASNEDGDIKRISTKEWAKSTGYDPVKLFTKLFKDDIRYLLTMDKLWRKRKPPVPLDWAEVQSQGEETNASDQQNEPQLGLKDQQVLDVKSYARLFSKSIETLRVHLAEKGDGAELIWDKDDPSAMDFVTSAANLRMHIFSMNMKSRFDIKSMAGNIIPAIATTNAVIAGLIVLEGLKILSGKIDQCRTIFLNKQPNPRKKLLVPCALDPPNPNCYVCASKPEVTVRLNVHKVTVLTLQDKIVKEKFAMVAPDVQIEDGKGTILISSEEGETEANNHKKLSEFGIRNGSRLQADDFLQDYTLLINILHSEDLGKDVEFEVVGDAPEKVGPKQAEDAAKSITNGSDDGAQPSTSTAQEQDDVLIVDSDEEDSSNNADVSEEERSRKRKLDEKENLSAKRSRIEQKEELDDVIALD
Chain of Induced myeloid leukemia cell differentiation protein Mcl-1 (Q07820 whole entry): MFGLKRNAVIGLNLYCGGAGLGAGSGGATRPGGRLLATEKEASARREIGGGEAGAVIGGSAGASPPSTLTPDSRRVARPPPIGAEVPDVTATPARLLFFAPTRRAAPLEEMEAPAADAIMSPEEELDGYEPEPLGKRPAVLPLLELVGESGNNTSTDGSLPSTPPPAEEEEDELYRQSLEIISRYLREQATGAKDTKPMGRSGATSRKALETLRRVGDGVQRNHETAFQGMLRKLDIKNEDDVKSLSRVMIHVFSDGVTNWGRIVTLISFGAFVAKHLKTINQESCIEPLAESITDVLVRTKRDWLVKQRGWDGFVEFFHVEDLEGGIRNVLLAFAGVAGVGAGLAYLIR
Chain of Ras and Rab interactor 1/Tyrosine-protein kinase ABL1 (P00519 whole entry): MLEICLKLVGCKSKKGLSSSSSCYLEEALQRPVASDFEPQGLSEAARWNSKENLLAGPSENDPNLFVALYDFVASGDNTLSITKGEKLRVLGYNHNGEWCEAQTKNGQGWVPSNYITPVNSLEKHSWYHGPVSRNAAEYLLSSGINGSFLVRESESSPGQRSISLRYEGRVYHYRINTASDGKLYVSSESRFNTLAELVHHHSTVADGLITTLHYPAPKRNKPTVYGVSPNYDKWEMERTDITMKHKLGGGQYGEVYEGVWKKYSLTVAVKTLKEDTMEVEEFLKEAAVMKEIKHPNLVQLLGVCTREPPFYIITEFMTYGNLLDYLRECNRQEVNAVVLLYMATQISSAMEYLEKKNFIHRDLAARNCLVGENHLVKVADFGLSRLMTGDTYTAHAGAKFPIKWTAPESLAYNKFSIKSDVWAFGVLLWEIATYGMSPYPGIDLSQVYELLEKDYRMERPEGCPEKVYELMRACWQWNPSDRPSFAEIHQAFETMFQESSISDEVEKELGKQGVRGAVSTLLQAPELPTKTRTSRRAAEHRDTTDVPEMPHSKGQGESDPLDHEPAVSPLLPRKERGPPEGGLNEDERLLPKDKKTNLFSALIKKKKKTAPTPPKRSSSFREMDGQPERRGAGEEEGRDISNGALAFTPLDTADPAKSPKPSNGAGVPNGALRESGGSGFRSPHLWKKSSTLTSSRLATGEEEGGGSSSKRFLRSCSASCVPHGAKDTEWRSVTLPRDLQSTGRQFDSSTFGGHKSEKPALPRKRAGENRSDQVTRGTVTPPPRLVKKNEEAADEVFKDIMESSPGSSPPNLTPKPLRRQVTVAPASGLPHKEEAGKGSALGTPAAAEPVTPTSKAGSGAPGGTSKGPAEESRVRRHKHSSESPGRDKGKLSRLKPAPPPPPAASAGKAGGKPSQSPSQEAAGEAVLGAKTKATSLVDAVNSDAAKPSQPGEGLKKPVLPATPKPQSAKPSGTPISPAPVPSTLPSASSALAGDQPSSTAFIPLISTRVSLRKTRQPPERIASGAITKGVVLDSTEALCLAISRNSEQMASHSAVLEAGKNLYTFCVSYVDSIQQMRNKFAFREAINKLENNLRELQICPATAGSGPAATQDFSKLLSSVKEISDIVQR
Chain of Ras and Rab interactor 1/Tyrosine-protein kinase ABL1 (Q13671 whole entry): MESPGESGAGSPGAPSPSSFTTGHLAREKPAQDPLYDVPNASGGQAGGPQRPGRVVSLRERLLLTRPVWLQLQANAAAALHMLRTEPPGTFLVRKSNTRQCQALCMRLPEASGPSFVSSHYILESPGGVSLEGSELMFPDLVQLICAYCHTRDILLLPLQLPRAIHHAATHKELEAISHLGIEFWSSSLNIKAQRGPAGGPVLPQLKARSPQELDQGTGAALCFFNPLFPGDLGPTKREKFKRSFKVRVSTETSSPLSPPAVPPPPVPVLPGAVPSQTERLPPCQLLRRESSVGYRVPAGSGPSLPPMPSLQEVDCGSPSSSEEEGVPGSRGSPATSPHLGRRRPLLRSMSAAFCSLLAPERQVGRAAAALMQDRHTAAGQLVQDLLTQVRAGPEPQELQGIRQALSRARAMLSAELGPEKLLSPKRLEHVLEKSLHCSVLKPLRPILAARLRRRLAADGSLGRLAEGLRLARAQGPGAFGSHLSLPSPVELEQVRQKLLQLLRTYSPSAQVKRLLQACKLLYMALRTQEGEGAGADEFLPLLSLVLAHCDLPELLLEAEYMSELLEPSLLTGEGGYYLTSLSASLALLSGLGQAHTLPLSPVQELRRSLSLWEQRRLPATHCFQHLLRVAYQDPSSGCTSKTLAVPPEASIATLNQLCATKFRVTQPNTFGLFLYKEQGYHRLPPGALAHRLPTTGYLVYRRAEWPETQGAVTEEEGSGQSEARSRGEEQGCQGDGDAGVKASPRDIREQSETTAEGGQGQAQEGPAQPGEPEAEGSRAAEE
Chain of 5-hydroxytryptamine receptor 5A (P47898 whole entry): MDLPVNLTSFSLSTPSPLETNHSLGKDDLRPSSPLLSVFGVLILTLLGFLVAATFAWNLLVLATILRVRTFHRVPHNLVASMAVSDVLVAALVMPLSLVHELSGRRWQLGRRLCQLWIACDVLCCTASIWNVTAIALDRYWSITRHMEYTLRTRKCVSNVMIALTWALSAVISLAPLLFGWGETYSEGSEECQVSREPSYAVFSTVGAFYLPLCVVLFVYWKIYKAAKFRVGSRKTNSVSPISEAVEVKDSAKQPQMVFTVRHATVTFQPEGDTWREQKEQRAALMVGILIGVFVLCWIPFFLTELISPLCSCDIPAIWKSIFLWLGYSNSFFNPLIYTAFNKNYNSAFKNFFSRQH
Chain of Voltage-gated inwardly rectifying potassium channel KCNH2 (Q12809 whole entry): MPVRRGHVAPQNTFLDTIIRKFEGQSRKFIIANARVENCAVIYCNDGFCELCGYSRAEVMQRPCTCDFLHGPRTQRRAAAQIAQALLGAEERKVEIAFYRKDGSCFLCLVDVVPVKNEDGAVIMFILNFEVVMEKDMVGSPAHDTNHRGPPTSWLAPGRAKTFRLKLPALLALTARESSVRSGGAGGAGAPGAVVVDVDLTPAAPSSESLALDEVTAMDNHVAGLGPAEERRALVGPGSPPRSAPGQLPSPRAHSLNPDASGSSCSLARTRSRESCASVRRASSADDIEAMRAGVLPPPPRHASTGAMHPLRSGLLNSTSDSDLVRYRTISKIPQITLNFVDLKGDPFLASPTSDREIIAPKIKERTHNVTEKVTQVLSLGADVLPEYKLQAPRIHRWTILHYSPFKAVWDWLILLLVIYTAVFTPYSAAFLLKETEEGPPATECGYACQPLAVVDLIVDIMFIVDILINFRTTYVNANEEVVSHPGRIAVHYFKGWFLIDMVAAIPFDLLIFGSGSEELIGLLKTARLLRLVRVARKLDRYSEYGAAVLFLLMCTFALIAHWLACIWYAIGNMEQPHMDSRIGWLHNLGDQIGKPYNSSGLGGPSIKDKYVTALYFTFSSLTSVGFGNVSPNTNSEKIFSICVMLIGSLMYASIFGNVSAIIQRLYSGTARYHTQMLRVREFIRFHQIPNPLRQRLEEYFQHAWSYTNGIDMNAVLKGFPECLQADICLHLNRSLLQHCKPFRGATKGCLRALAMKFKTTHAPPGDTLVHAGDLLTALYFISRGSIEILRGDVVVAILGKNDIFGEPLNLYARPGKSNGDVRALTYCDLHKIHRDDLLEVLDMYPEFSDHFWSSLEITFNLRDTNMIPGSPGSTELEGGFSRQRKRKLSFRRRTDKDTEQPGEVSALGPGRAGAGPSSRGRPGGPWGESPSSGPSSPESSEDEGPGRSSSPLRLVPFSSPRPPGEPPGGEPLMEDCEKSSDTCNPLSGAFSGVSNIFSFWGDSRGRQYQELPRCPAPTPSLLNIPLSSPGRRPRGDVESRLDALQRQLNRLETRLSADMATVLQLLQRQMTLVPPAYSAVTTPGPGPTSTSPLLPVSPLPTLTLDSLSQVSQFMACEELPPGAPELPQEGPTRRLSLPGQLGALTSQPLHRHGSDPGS

Q: For CCOC(=O)c1ccc(NC(=O)c2cn(CCC#N)nc2-c2ccc3c(c2)OCCO3)cc1, which AC50 (Escherichia coli) is on record?
A: 30.3 µM (active)

Q: Which EC50 [1] does the source give for C=CCN1C[C@@H](C)N(C(c2ccc(C(=O)N(CC)CC)cc2)c2cccc(OC)c2)C[C@@H]1C (stereo partly specified) here?
A: > 92.5 µM (inactive)

Q: Which results are given for CCCCc1ccc(-n2nc3cc(Cl)c(C(=O)NC(C)(C)C)cc3n2)cc1?
A: AC50 (H4 [2]): 0.032 µM (active); AC50 (H4 [3]): < 0.02 µM (active)

Q: Which IC50 [4] does the source give for COc1cc2c(ccc3cc(OC)c(OC)c(O)c32)cc1O here?
A: 1.95 µM (active)

Q: What about the AC50 [5] of the same molecule?
A: 0.406 µM (active)

Q: What about the IC50 (SUMO-activating enzyme [6]) of the same molecule?
A: 13.9 µM (active)

Q: What about the IC50 [7] of the same molecule?
A: 35.2 µM (inactive)

Q: What about the AC50 [8] of the same molecule?
A: 2.19 µM (active)

Q: What about the IC50 (SUMO-activating enzyme [9]) of the same molecule?
A: 2.89 µM (active)

Q: What about the IC50 (Large T antigen) of the same molecule?
A: 9.72 µM (active)

Q: For C[N+]1(C)C2CCC1CC(OC(=O)c1c[nH]c3ccccc13)C2 (stereo unspecified), which AC50 [10] is on record?
A: 25.1 µM (inconclusive)

Q: For Cc1oc(/N=C/c2ccccc2)c(C#N)c1C, which AC50 [11] is on record?
A: > 195 µM (inactive)

Q: And the AC50 (INS1)?
A: > 260 µM (inactive)

Q: What about the EC50 [12] of the same molecule?
A: > 195 µM (not active)

Q: What about the AC50 [13] of the same molecule?
A: 33.8 µM (active)
